Test results as given in patent publication US20150352196A1, “Methods and Pharmaceutical Compositions for Prevention of Aging-Related Lesions” (INSERM (INSTITUT NATIONAL DE LA SANTÉ ET DE LA RECHERCHE …, priority 2012, published 2015).

Experiments:
Type in all cases: cell-based
calpain = calpain activity assays in cell lines expressing IGF-1 receptor after exposure to IGF-1; settings: including immortalized podocytes
Description: Inventors first focused their work on somatotropic axis and particularly IGF-1 receptor role in calpain activation. […] Calpain activity assays developed in the laboratory have been performed in several cell lines expressing IGF-1 receptor (podocyte lines, splenocytes, mesangial cells) after exposure to IGF-1.

[1] = system: mouse smooth muscle cells; assay: mitogenic effect of IGF-1 on mouse smooth muscle cells in vitro; settings: IGF-1 stimulated
PI3kinase/Akt pathway = assay: FOXO reporter in transfected HEK cells exposed to IGF-1; settings: HEK cells transfected with FOXO reporter
Description: In addition, the inventors transfected HEK cells by a FOXO reporter measuring the activity of the Pl3kinase/Akt pathway downstream of IGF-1 receptor.

Row | Substance | calpain activity (calpain) | mitogenic effect of IGF-1 [1] | activity of the PI3kinase/Akt pathway downstream of IGF-1 receptor (FOXO reporter) (PI3kinase/Akt pathway)
1 | IGF-1: ligand of the IGF-1 receptor, somatotropic axis; used to stimulate cell lines | increase calpain activity in a dose- and time-dependent manner | – | –
2 | (2Z)-3-(4-iodophenyl)-2-mercapto-2-Propenoic acid, 3-(4-iodophenyl)-2-mercapto-(Z)-2-propenoic acid [PD-150606] | – | blunted partly but significantly | inhibited significantly
